We go through one molecule from patent publication US20240115744A1, “FIBRIN-BINDING COMPOUNDS FOR IMAGING AND TREATMENT” (Collagen Medical, LLC, priority 2019, published 2024).

*1 amine or outer side, *2 acyl side, *3 side chain or, on linkers, in order; H or OH if unused. Where a SMILES comes first, the peptide text is derived from it. Bridges are numbered along the chain shown (N, C = ends). [ ]: non-standard residue; d: D form. The star is where a group is joined. NODAGA = O=C(O)CN1CCN(CC(=O)O)CCN(C(CCC(=O)*)C(=O)O)CC1; Tyr(3-Cl) = N[C@@H](Cc1ccc(O)c(Cl)c1)C(=O)O; X1 = O=C([C@@H]1CC(O)CN1[*:1])[*:2]

The target in experiment [1] is T1, vessel wall fibrin (Rattus norvegicus, UniProt P02680+P06399+P14480).
T1 construct: resulting in mural thrombus formation at the site of the crush; from tissue; host or cells: injured common carotid artery of Wistar rats (in vivo and ex vivo autoradiography)
T1 sequence (P06399 37-782 limits assumed): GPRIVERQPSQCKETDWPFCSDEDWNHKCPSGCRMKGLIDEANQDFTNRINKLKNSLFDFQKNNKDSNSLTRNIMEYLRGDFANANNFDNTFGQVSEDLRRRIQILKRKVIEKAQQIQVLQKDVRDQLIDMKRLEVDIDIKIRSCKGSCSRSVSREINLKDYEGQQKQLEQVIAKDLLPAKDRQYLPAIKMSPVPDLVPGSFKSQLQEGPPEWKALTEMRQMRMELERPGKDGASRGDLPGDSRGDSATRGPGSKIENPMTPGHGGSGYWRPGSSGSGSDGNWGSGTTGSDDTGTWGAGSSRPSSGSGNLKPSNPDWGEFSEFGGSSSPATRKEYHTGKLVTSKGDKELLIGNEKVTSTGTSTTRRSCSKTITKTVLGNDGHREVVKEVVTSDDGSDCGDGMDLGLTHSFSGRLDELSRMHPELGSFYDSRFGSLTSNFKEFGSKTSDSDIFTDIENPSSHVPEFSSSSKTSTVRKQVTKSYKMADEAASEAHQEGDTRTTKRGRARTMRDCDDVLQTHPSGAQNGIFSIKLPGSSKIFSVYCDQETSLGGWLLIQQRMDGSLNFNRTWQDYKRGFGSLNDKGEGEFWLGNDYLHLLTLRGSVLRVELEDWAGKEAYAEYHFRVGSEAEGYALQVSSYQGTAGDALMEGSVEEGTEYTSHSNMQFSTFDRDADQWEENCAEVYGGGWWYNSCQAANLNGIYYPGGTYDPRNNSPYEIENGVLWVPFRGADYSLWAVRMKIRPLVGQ
T1 sequence (P14480 33-479 limits assumed): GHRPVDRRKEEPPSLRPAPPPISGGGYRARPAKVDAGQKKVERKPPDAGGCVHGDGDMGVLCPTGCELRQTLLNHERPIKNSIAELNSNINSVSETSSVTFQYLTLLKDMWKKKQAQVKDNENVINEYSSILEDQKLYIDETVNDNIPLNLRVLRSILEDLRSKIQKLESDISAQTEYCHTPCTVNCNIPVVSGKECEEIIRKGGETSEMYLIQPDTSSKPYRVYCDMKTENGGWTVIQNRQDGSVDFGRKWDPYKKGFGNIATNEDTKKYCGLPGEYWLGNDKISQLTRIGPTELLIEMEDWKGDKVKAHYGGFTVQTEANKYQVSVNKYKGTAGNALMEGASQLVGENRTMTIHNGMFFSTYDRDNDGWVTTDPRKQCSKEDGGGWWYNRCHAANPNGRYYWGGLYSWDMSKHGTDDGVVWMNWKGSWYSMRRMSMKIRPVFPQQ
T1 sequence (P02680 27-445 limits assumed): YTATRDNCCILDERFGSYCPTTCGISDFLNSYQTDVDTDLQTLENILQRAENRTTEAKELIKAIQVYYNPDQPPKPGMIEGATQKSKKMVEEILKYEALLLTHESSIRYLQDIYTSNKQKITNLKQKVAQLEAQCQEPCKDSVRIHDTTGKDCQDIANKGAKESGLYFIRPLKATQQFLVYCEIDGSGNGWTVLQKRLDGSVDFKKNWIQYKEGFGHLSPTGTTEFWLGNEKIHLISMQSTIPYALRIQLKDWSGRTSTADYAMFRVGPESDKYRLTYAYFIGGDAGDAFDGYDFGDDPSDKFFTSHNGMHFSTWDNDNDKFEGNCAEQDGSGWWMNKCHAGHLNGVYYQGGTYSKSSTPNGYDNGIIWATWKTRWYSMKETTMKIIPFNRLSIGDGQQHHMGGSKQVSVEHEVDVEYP
As to the kind of experiment: Autoradiography / PET imaging of injured ipsi- and contra-lateral carotid arteries. The format is in vivo. Particulars: rat injured vs contra-lateral carotid; ^68Ga-19 vs ^68Ga-20. On the procedure: Rat carotid endothelial injury model in vivo studies were conducted, wherein the common carotid artery is isolated and crushed briefly with a hemostat, resulting in mural thrombus formation at the site of the crush. The vessel wall fibrin is then imaged with our PET compounds. All six compounds were evaluated in this model.
Adult male Wistar rats were anesthetized by isoflurane (1-2% in medical air). Body temperature was maintained at 37° C. using a thermo-regulated heating pad. The right femoral vein and artery were cannulated for compound injection and blood sampling, respectively. Endothelial injury was induced by crush injury to the right common carotid artery (1-2 cm proximal to the carotid bifurcation) by clamping the vessel with a hemostat for 5 minutes. Immediately following the surgical procedures, rats were placed in a micro-PET/CT scanner. Compound (200-600 μL) was injected, PET-CT images were acquired, and blood samples were drawn from the femoral artery prior to compound injection and at 2, 5, 10, 15, 30, 60, 90, 120 min post injection. Tissues were harvested at the end for ex vivo analyses.
The injured ipsi- and the contra-lateral carotid arteries were placed on a multipurpose film and imaged using a Perkin-Elmer Cyclone Plus Storage Phosphor system. […]

The test system of experiment [2] is Fibrin clots. As to the kind of experiment: PET in rabbit model of high risk plaque (plaque-rupture model). The format is in vivo. The text has this: Mean SUV values, TBRvc and TBRm were compared across all rabbits after in vivo PET.

In the case of `CC[C@H](C)[C@H](NC(=O)[C@H](Cc1cnc[nH]1)NC(=O)[C@@H]1CSSC[C@H](NC(=O)[C@@H](CCC(=O)O)NC(=O)[C@H](Cc2ccc(O)cc2)NC(=O)CCC(C(=O)O)N2CCN(CC(=O)O)CCN(CC(=O)O)CC2)C(=O)N2CC(O)C[C@H]2C(=O)N[C@@H](Cc2ccc(O)c(Cl)c2)C(=O)NCC(=O)N[C@@H](CC(C)C)C(=O)N1)C(=O)N[C@H](CCC(N)=O)C(N)=O` (stereo partly shown) [Compound ^68Ga-20, metal not drawn] ({NODAGA}-Y[dE]C[X1][Tyr(3-Cl)]GLCHI[dQ]-NH2; disulfide 3-8), the “ipsi: contra ratios” value in experiment [1] is reported as “better ipsi: contra ratios”. Moreover, the “plaque rupture-to-control SUV ratios” value in experiment [2] (across post injection imaging time points) was “higher plaque rupture-to-control SUV ratios were seen with longer post injection imaging time points”. Besides, the “PET-MR uptake along the aorta” value in experiment [2] (plaque rupture group vs control) is “Fibrin clots were seen as uptake spots along the aorta on the plaque rupture group”. The “validation in rabbit model of high risk plaque” value in experiment [2] (plaque-rupture model, in vivo PET) is “successfully validated”.
